Series [1] can be described thus: Rodent pharmacokinetic study. The series is classed as in vivo, Male Wistar rats. Conditions: male, Wistar, rat, plasma; for bioavailability: oral 3 mg/kg vs i.v. 1 mg/kg, read-out: F (bioavailability). The method, then:
Rodent Pharmacokinetic Study
Male Wistar rats (260±50 grams) were used as experimental animals. Animals were housed individually in polypropylene cage. Two days prior to study, male Wistar rats were anesthetized with isoflurane for surgical placement of jugular vein catheter. Rats were randomly divided for oral (3 mg/kg) and intravenous (i.v) (1 mg/kg) dosing (n=3/group) and fasted overnight before oral dosing (p.o.). However, rats allocated to intravenous (i.v.) dosing food and water was provided ad libitum.
At pre-determined point, blood was collected through jugular vein and replenished with an equivalent volume of normal saline. Collected blood was transferred into a labelled eppendorf tube containing 10 μL of heparin as an anticoagulant. Typically blood samples were collected at following time points: 0.08, 0.25, 0.5, 1, 2, 4, 6, 8, and 24 h post dose. Blood was centrifuged at 4000 rpm for 10 minutes. Plasma was separated and stored frozen at −80° C. until analysis. The concentrations of the test compounds were quantified in plasma by qualified LC-MS/MS method using suitable extraction technique. The test compounds were quantified in the calibration range around 1-1000 ng/mL in plasma. Study samples were analyzed using calibration samples in the batch and quality control samples spread across the batch.
Pharmacokinetic parameters Cmax, Tmax (h), AUCt, T1/2, clearance and bioavailability (F) were calculated by non-compartmental model using standard non-compartmental model by using Phoenix WinNonlin 6.0.2 or 6.0.3 version Software package.

Series [2] is described as follows: Rodent brain penetration study. The series is classed as in vivo, Male Wistar rats. The settings on record: male, Wistar, brain and plasma, po; rat, 3 mg/kg, p.o. @ 1.0 hr, brain-plasma ratio; read-out: Single dose Rat Brain Penetration (Cb/Cp). The method, then:
Rodent Brain Penetration Study
Male Wistar rats (260±40 grams) were used as experimental animals. Three animals were housed in each cage. Animals were given water and food ad libitum throughout the experiment and maintained on a 12 h light/dark cycle.
Brain penetration was determined in discrete manner in rats. One day prior to dosing day, male Wistar rats were acclimatized and randomly grouped according to their weight. At each time point (0.5, 1 and 2 h) n=3 animals were used.
The test compounds were suitably preformulated and administered orally at (free base equivalent) 3 mg/kg. Blood samples were removed via cardiac puncture by using isoflurane anesthesia. The animals were sacrificed to collect brain tissue. Plasma was separated and brain samples were homogenized and stored frozen at −20° C. until analysis. The concentrations of the test compounds in plasma and brain were determined using LC-MS/MS method.
The test compounds were quantified in plasma and brain homogenate by qualified LC-MS/MS method using suitable extraction technique. The test compounds were quantified in the calibration range of 1-500 ng/mL in plasma and brain homogenate. Study samples were analyzed using calibration samples in the batch and quality control samples spread across the batch.

For series [3], the target named is T1, recombinant human Muscarinic M1 receptor (Homo sapiens, UniProt P11229).
T1 sequence (P11229 1-460): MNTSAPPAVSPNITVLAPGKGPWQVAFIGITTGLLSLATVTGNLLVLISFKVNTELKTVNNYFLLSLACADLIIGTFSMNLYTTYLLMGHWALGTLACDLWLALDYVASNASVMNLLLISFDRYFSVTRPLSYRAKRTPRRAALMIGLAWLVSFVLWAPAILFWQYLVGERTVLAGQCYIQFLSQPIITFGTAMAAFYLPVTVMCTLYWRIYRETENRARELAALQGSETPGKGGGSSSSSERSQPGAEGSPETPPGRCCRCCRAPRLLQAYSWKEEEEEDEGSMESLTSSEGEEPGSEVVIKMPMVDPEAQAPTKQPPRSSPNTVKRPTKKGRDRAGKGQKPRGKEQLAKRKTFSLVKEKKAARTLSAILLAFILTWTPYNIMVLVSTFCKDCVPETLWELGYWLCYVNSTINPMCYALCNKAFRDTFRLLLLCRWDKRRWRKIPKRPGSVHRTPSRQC
Put plainly: Allosteric potency EC50 for Muscarinic M1 receptor, CHO pCRE-Luc reporter cell-based assay with EC20 of acetylcholine. Conditions: CHO cells, human M1, luciferase reporter, in presence of EC20 of acetylcholine, 4 h. The method, then:
Determination of allosteric potency EC50 values for Muscarinic M1 receptor:
A stable CHO cell line expressing recombinant human Muscarinic M1 receptor and pCRE-Luc reporter system was used for cell-based assay. The assay offers a non-radioactive based approach to determine binding of a compound to GPCRs. In this specific assay, the level of intracellular cyclic AMP which is modulated by activation or inhibition of the receptor is measured. The recombinant cells harbor luciferase reporter gene under the control of cAMP response element.
The above cells were grown in 96 well clear bottom white plates in Hams F12 medium containing 10% fetal bovine serum (FBS). Prior to the addition of compounds or standard agonist, cells were serum starved overnight. Increasing concentrations of test compounds were added along with EC20 of acetylcholine in OptiMEM medium to the cells. The incubation was continued at 37° C. in CO2 incubator for 4 h. Medium was removed and cells were washed with phosphate buffered saline. The cells were lysed and luciferase activity was measured in a Luminometer. Luminescence counts in each concentrations of test item were normalized to the acetylcholine induced maximum response and the data was analyzed using Graphpad software. EC50 values of the compounds were defined as the concentration required in stimulating the luciferase activity by 50% in presence of EC20 of acetylcholine.
(In general: In a reporter assay the amount or activity of a reporter protein is the signal.)

`Cc1c(Cc2ccnc(Cl)c2)cc(C(=O)N[C@H]2CCCC[C@@H]2O)c2ncccc12` [Example 1, N-(cis-1S,2S-2-Hydroxycyclohexyl)-6-(2-chloropyridin-4-ylmethyl)-5-methylquinoline-8-carboxamide]: in series [1] (iv, i.v. 1 mg/kg), the AUC(0-t) (usually the area under the concentration-time curve up to a stated or last time point) stood at 492 ± 22 ng·h/mL; the half-life (as a rule, how long it takes for the measured level to halve) was 1.3 ± 0.5 h; the clearance (as a rule, the rate of elimination divided by the concentration) came out at 34 ± 1.5 mL/min/kg. The bioavailability (commonly dose-corrected exposure relative to a reference, in per cent) in series [1] was 24 ± 8%. In addition, in series [1] (oral 3 mg/kg), the AUC(0-t) worked out at 360 ± 117 ng·h/mL; the concentration peaked (Cmax) at 150 ± 39 ng/mL; the Tmax – broadly, the time at which the peak concentration occurs – lay within 0.5 to 1 h; the half-life was 1.1 ± 0.1 h. Further, in series [2], the Kp at 1 h was 0.54 ± 0.04. Moreover, in series [3], the EC50 – broadly, the concentration at which the effect is half-maximal – was 719 nM.

`Cc1c(Cc2cccc(F)c2F)cc(C(=O)N[C@H]2CCCC[C@@H]2O)c2ncccc12` [Example 2, N-(cis-1S,2S-2-Hydroxycyclohexyl)-6-(2,3-difluorobenzyl)-5-methylquinoline-8-carboxamide]: in series [1] (iv, i.v. 1 mg/kg), the AUC(0-t) is 367 ± 39 ng·h/mL, the half-life was 1.6 ± 0.3 h and the clearance was determined as 45 ± 5 mL/min/kg. The bioavailability in series [1] amounted to 14 ± 5%. Besides, in series [1] (oral 3 mg/kg), the AUC(0-t) stood at 158 ± 58 ng·h/mL, the highest level (Cmax) was 48 ± 23 ng/mL, the time of peak concentration (Tmax) lay within 0.5 to 2 h and the half-life was 2 ± 0.2 h. The Kp at 1 h in series [2] stood at 1.74 ± 0.03. The EC50 in series [3] came to 1680 nM.

Regarding `Cc1c(Cc2ccc(Cl)nc2)cc(C(=O)N[C@H]2CCCC[C@@H]2O)c2ncccc12` [Example 6, N-(cis-1S,2S-2-Hydroxycyclohexyl)-6-(2-chloropyridin-5-ylmethyl)-5-methylquinoline-8-carboxamide], in series [1] (iv, i.v. 1 mg/kg), the AUC(0-t) turned out to be 664 ± 81 ng·h/mL, the half-life was 1.5 ± 0.6 h and the clearance stood at 25 ± 3.3 mL/min/kg. The bioavailability in series [1] is 50 ± 2%. Also, in series [1] (oral 3 mg/kg), the AUC(0-t) worked out at 1000 ± 38 ng·h/mL, the concentration peaked (Cmax) at 582 ± 72 ng/mL, the Tmax was found to be 0.5 h and the half-life was 1.3 ± 0.2 h. For the same molecule, in series [2], the Kp at 1 h stood at 0.26 ± 0.04. Also, in series [3], the EC50 is 1670 nM.

In the case of `Cc1c(Cc2ccc(-c3cnn(C)c3)c(F)c2F)cc(C(=O)N[C@H]2CCCC[C@@H]2O)c2ncccc12` [Example 8, N-(cis-1S,2S-2-Hydroxycyclohexyl)-6-[2,3-difluoro-4-(1-methyl-1H-pyrazol-4-yl)-benzyl]-5-methylquinoline-8-carboxamide], in series [1] (iv, i.v. 1 mg/kg), the AUC(0-t) came out at 6150 ± 485 ng·h/mL, the half-life was 3.3 ± 0.7 h and the clearance was found to be 2.7 ± 0.2 mL/min/kg. The bioavailability in series [1] turned out to be 100 ± 16%. Moreover, in series [1] (oral 3 mg/kg), the AUC(0-t) amounted to 18400 ng·h/mL, the Cmax (commonly the maximum level reached in the sampled fluid or tissue) came to 2330 ± 441 ng/mL, the Tmax came to 2 h and the half-life is 3.6 ± 0.2 h. Besides, the EC50 in series [3] is 168 nM.

As to `Cc1c(Cc2ccc(-c3cnn(C)c3)c(F)c2F)cc(C(=O)N[C@H]2CCCC[C@@H]2O)c2[nH]cnc12` [Example 36, N-(cis-1S,2S-2-Hydroxycyclohexyl)-7-methyl-6-[2,3-difluoro-4-(1-methyl-1H-pyrazol-4-yl)-benzyl]-1H-benzimidazole-4-carboxamide], the EC50 in series [3] was determined as 465 nM.

As to `Cn1cc(-c2ccc(Cc3cc(C(=O)N[C@H]4CCCC[C@@H]4O)c4[nH]cnc4c3)c(F)c2F)cn1` [Example 37, N-(cis-1S,2S-2-Hydroxycyclohexyl)-6-[2,3-difluoro-4-(1-methyl-1H-pyrazol-4-yl)-benzyl]-1H-benzimidazole-4-carboxamide], the EC50 in series [3] is 597 nM.

For the molecule `Cc1nc2c(C(=O)N[C@H]3CCCC[C@@H]3O)cc(Cc3ccc(-n4cccn4)cc3)c(C)c2[nH]1` [Example 38, N-(cis-1S,2S-2-Hydroxycyclohexyl)-2,7-dimethyl-6-(4-pyrazol-1-yl-benzyl)-1H-benzimidazole-4-carboxamide], in series [3], the EC50 is 694 nM.

Take `Cc1nc2c(C(=O)N[C@H]3CCCC[C@@H]3O)cc(Cc3ccc(-c4cnn(C)c4)cc3)c(C)c2[nH]1` [Example 39, N-(cis-1S,2S-2-Hydroxycyclohexyl)-2,7-dimethyl-6-[4-(1-methyl-1H-pyrazol-4-yl)-benzyl]-1H-benzimidazole-4-carboxamide]: the EC50 in series [3] turned out to be 895 nM.

For the molecule `Cc1nc2c(C(=O)N[C@H]3CCCC[C@@H]3O)cc(Cc3ccc(-c4cscn4)cc3)c(C)c2[nH]1` [Example 40, N-(cis-1S,2S-2-Hydroxycyclohexyl)-2,7-dimethyl-6-(4-thiazol-4-yl-benzyl)-1H-benzimidazole-4-carboxamide], in series [3], the EC50 was 1500 nM.

As for `Cc1c(Cc2ccc(-c3cnn(C)c3)cc2F)cc(C(=O)N[C@@H]2CCCC[C@H]2O)c2c1ncn2C` [Example 41, N-(cis-1S,2S-2-Hydroxycyclohexyl)-3,7-dimethyl-6-[2-fluoro-4-(1-methyl-1H-pyrazol-4-yl)-benzyl]-3H-benzimidazole-4-carboxamide], the EC50 in series [3] worked out at 1060 nM.

As to `Cc1c(Cc2ccc(-c3cnn(C)c3)cc2)cc(C(=O)N[C@@H]2CCCC[C@H]2O)c2c1ncn2C` [Example 42, N-(cis-1S,2S-2-Hydroxycyclohexyl)-3,7-dimethyl-6-[4-(1-methyl-1H-pyrazol-4-yl)-benzyl]-3H-benzimidazole-4-carboxamide], the EC50 in series [3] was 10000 nM.

Take `Cc1c(Cc2ccc(-c3cnn(C)c3)c(F)c2F)cc(C(=O)N[C@@H]2CCCC[C@H]2O)c2c1ncn2C` [Example 43, N-(cis-1S,2S-2-Hydroxycyclohexyl)-3,7-dimethyl-6-[2,3-difluoro-4-(1-methyl-1H-pyrazol-4-yl)-benzyl]-3H-benzimidazole-4-carboxamide]: the EC50 in series [3] was determined as 1460 nM.

On to `Cc1c(Cc2ccc(-c3cnn(C)c3)nc2)cc(C(=O)N[C@@H]2CCCC[C@H]2O)c2c1ncn2C` [Example 44, N-(cis-1S,2S-2-Hydroxycyclohexyl)-3,7-dimethyl-6-[6-(1-methyl-1H-pyrazol-4-yl)-pyridin-3-ylmethyl]-3H-benzimidazole-4-carboxamide], for which the EC50 in series [3] was 208 nM.

As to `Cc1c(Cc2ccc(-c3cscn3)cc2)cc(C(=O)N[C@@H]2CCCC[C@H]2O)c2c1ncn2C` [Example 45, N-(cis-1S,2S-2-Hydroxycyclohexyl)-3,7-dimethyl-6-[4-(thiazol-4-yl)-benzyl]-3H-benzimidazole-4-carboxamide], the EC50 in series [3] was 10000 nM.

Consider `Cc1cc2c(C)c(Cc3ccc(-c4cnn(C)c4)cc3)cc(C(=O)N[C@H]3CCCC[C@@H]3O)c2o1` [Example 46, N-(cis-1S,2S-2-Hydroxycyclohexyl)-2,4-dimethyl-5-[4-(1-methyl-1H-pyrazol-4-yl)-benzyl]-benzofuran-7-carboxamide], for which, in series [3], the EC50 is 299 nM.

(Values after patent US11278530B2, “Polycyclic amides as muscarinic M1 receptor positive allosteric modulators” (SUVEN LIFE SCIENCES LIMITED, priority 2017, dated 2022).)
